Results published in patent publication US8293786B2 (Alltranz Inc., priority 2007, dated 2012).

Columns and labels:
[1] = tested on: human abdominal skin; experiment: In vitro human skin permeation and skin disposition, flow-through diffusion cells (Example 1); type: in vitro ADME
Description: Flow through diffusion cells were used for the permeation studies. HEPES-buffered Hanks' balanced salts containing 40% (polyethylene glycol) PEG 400 with gentamicin was used for the receiver compartment. Donor solution was comprised of either 100% propylene glycol (PG) solution or a rubbed in gel formulation. […] Drug accumulation in the skin after a 24 or 36 h diffusion experiment was determined as μmol/g wet tissue weight.
The skin samples used in the following experiments were obtained from abdominal reduction surgery and dermatomed to a thickness of approximately 200 μm. The skin samples used herein were frozen at −20° C. for less than six months.
1 L of receiver fluid was prepared by measuring 1 L of nanopure water into a graduated cylinder. 90% of the water was added to an Erlenmeyer flask. Hanks' salts (1 bottle) were added to the water along with 5.96 g of HEPES and 0.35 g of sodium bicarbonate. The pH of the solution was adjusted with 1 N sodium hydroxide solution to pH 7.4. The remaining water was added and the receiver fluid was filtered through a 0.2μ filter (Millipore, Billerica, Mass.). 50 mg of gentamicin was added to the filtered receiver fluid and 400 mL of the receiver fluid was removed and replaced with 400 mL of PEG 400.
Two different formulations were used for charging the donor compartment. Drugs were made up in either 100% PG or a gel formulation. For the PG solution, approximately 50-120 mg of the appropriate drug was weighed into a glass silanized culture tube. The gel formulation resulted from the mixing of absolute ethanol, nanopure water, IPM, Carbopol® 980, 0.1 N aqueous sodium hydroxide solution and the respective drug.
Dermatomed skin harvested from abdominoplasty, stored at −20° C., was used for the experiments. A PermeGear flow-through (In-Line, Riegelsville, Pa.) diffusion cell system was used for the skin permeation studies.
Diffusion cells were kept at 32° C. with a circulating water bath. Human epidermal skin was arranged in the diffusion cell with stratum corneum (upper layer of skin) facing the donor compartment. Permeation area of the skin was 0.95 cm^2. Data was collected from a human skin donor with three to four diffusion cells per treatment.
Receiver solution was HEPES-buffered Hanks' balanced salts with gentamicin containing 40% PEG 400 at a pH of 7.4 and flow rate was adjusted to 0.8 mL/h. Each cell was charged with 0.050 mL of the respective drug formulation (donor solution) or with 0.035 mL of gel formulation which was rubbed into the skin for 15 sec with a Teflon coated rod. The formulation was applied to ensure complete coverage. Diffusion cells were covered with a cap for the duration of the study.
Samples were collected into scintillation vials in 3 h increments for either 24 h or 36 h. All the samples were stored at 4° C. until extracted. An aliquot (0.5 mL) of the diffusion sample was placed into a silanized HPLC vial and 0.5 mL of acetonitrile was added to the sample, capped and vortexed.
At the end of the experiment, the skin tissue was removed from the diffusion cell, rinsed with nanopure water, and blotted dry with a paper towel. The skin was tape stripped twice using book tape (Scotch™, 3M, St. Paul, Minn.) to remove drug formulation adhering to the tissue surface. The area of skin in contact with the drug was cut out, chopped up and placed in a pre-weighed scintillation vial. Ten mL of acetonitrile was added to the vial and drug was extracted from the skin by shaking at room temperature overnight. The following day a 0.1 mL aliquot was removed and diluted with an additional 0.9 mL of acetonitrile. The diluted sample was added to the silanized HPLC vial for analysis.
At the end of the experiment, a 0.01 mL aliquot of the PG donor solution was removed and added to a scintillation vial containing 10 mL of acetonitrile. The vials were vortexed and then sonicated for 15 min. An aliquot of 1 mL was removed and transferred into a silanized HPLC vial for analysis.

[2] = Plasma stability of cannabidiol prodrugs (bioconversion to parent drug); type: in vitro ADME; conditions: Table 20, di-prodrug in plasma; for % mono-prodrug at time (h): mono-prodrug formed
Description: An approximated 1 mg/mL stock solution of each prodrug was prepared in 100 μL of ethanol and 900 μL of acetonitrile. Ten (10) μL of stock was spiked into 1 mL of plasma and vortexed. The samples were kept sealed in an amber vial and samples were obtained to analyze for bioconversion to parent drug.

[3] = Table 11, in gel formulation, CBD from applied prodrug
[4] = Table 11, in gel formulation, as applied compound (CBD or intact prodrug)
[5] = Table 11, in gel formulation, prodrug applied, as total CBD equivalents (cannabidiol and/or prodrug)
[6] = Table 12, in gel formulation, CBD from applied prodrug
[7] = Table 12, in gel formulation, as applied compound (CBD or intact prodrug)
[8] = Table 12, in gel formulation, prodrug applied, as total CBD equivalents
[9] = Table 13, in propylene glycol, 36 h, CBD from applied prodrug
[10] = Table 13, in propylene glycol, 36 h, as applied compound (CBD or intact prodrug)
[11] = Table 13, in propylene glycol, 36 h, prodrug applied, as total CBD equivalents
[12] = Table 13, in propylene glycol, CBD from applied prodrug
[13] = Table 13, in propylene glycol, as applied compound (CBD or intact prodrug)
[14] = Table 13, in propylene glycol, prodrug applied, as total CBD equivalents
[15] = Table 3, in propylene glycol, CBD high conc.
[16] = Table 3, in propylene glycol, CBD low conc.
[17] = Table 4, in propylene glycol, CBD high conc.
[18] = Table 4, in propylene glycol, CBD low conc.
[19] = Table 5, in propylene glycol, CBD high conc.
[20] = Table 5, in propylene glycol, CBD low conc.
[21] = Table 14, in propylene glycol, as applied compound (CBD or intact prodrug)

## C=C(C)C1CCC(C)=CC1c1c(OC(=O)CN(C)C)cc(CCCCC)cc1OC(=O)CN(C)C (centres unmarked) [ALL00105, CBD bis(N,N-dimethylglycinate)]
[1]; Example 1
  form in which the prodrug permeated through the human skin: permeated primarily as intact prodrug
[1]; [3]
  24 h cumulative amt: 4.1 ± 1.5 nmol
  24 h skin conc: 2.5 ± 2.1 µmol/g
  Flux: 0.3 ± 0.02 nmol/cm^2/h
  Lag time: 0.8 ± 0.4 h
[1]; [4]
  24 h cumulative amt: 66.8 ± 9.0 nmol
  24 h skin conc: 82.1 ± 58.9 µmol/g
  Flux: 2.9 ± 0.5 nmol/cm^2/h
  Lag time: 7.9 ± 3.3 h
[1]; [5]
  24 h cumulative amt: 76.5 ± 7.9 nmol
  24 h skin conc: 84.5 ± 60.7 µmol/g
  Flux: 3.3 ± 0.7 nmol/cm^2/h
  Lag time: 1.2 ± 0.1 h
[1]; [6]
  24 h cumulative amt: 1.1 ± 0.02 nmol
  24 h skin conc: 2.2 ± 2.1 µmol/g
  Flux: 0.06 ± 0.02 nmol/cm^2/h
  Lag time: 1.0 ± 0.6 h
[1]; [7]
  24 h cumulative amt: 7.3 ± 0.03 nmol
  24 h skin conc: 27.5 ± 7.4 µmol/g
  Flux: 0.37 ± 0.01 nmol/cm^2/h
  Lag time: 3.9 ± 4.8 h
[1]; [8]
  24 h cumulative amt: 8.9 ± 0.04 nmol
  24 h skin conc: 29.7 ± 9.1 µmol/g
  Flux: 0.41 ± 0.03 nmol/cm^2/h
  Lag time: 0.9 ± 1.2 h
[1]; [9]
  Flux: 1.4 ± 0.2 nmol/cm^2/h
  Lag time: 12.6 ± 1.3 h
[1]; [10]
  Flux: 0.5 ± 0.01 nmol/cm^2/h
  Lag time: 7.5 ± 0.0 h
[1]; [11]
  Flux: 1.9 ± 0.2 nmol/cm^2/h
  Lag time: 10.0 ± 2.9 h
[1]; [12]
  36 h cumulative amt: 32.6 ± 3.0 nmol
  36 h skin conc.: 2.8 ± 3.8 µmol/g
[1]; [13]
  36 h cumulative amt: 14.7 ± 3.2 nmol
  36 h skin conc.: 8.8 ± 0.0 µmol/g
[1]; [14]
  36 h cumulative amt: 47.2 ± 0.1 nmol
  36 h skin conc.: 7.2 ± 10.1 µmol/g
[1]; gel formulation
  cumulative amount of total cannabidiol equivalents delivered, compared to cannabidiol: 3.1-5.9 fold
[1]; gel formulation studies
  decrease of lag time of total cannabidiol compared to the parent drug: 7 to 8 h
[1]; mean between the two gel formulation experiments
  mean flux enhancement: 2.5
[1]; propylene glycol donor solution
  enhancement with the propylene glycol donor solution: did not show any enhancement
[2]; 2 h
  % mono-prodrug at time (h): 0%
  % Di-prodrug at time (h): 92%
[2]; 4 h
  % mono-prodrug at time (h): 0%
  % Di-prodrug at time (h): 88%
[2]; 22 h
  % mono-prodrug at time (h): 0%
  % Di-prodrug at time (h): 58%
[2]; 24 h
  % mono-prodrug at time (h): 0%
  % Di-prodrug at time (h): 55%
[2]; 0 h
  % Di-prodrug at time (h): 100%

## C=C(C)[C@@H]1CCC(C)=C[C@H]1c1c(O)cc(CCCCC)cc1O [cannabidiol, reference compound]
[1]; Table 2, in propylene glycol
  24 h cumulative amt: 222.7 ± 74.0 nmol
  24 h skin conc: 190.8 ± 10.7 µmol/g
  Flux: 10.4 ± 2.0 nmol/cm^2/h
[1]; [15]
  24 h cumulative amt: 89.2 ± 15.0 nmol
  24 h skin conc: 223.1 ± 75.3 µmol/g
  Flux: 7.8 ± 1.1 nmol/cm^2/h
[1]; [16]
  24 h cumulative amt: 50.1 ± 28.1 nmol
  24 h skin conc: 26.3 ± 14.1 µmol/g
  Flux: 4.5 ± 2.5 nmol/cm^2/h
[1]; [17]
  24 h cumulative amt: 110.4 ± 18.9 nmol
  24 h skin conc: 167.6 ± 76.7 µmol/g
  Flux: 8.5 ± 2.4 nmol/cm^2/h
[1]; [18]
  24 h cumulative amt: 63.5 ± 47.5 nmol
  24 h skin conc: 112.5 ± 61.8 µmol/g
  Flux: 6.0 ± 3.3 nmol/cm^2/h
[1]; [19]
  24 h cumulative amt: 42.4 ± 10.7 nmol
  24 h skin conc: 104.9 ± 51.0 µmol/g
  Flux: 3.9 ± 0.0 nmol/cm^2/h
[1]; [20]
  24 h cumulative amt: 56.9 ± 39.4 nmol
  24 h skin conc: 75.3 ± 33.1 µmol/g
  Flux: 5.7 ± 3.5 nmol/cm^2/h
[1]; Table 6, in propylene glycol
  24 h cumulative amt: 27.5 ± 32.5 nmol
  24 h skin conc: 49.2 ± 15.2 µmol/g
  Flux: 4.3 ± 2.4 nmol/cm^2/h
[1]; Table 7, in propylene glycol
  36 h cumulative amt: 15.7 ± 5.4 nmol
  36 h skin conc.: 44.1 ± 15.5 µmol/g
[1]; Table 7, in propylene glycol, 36 h experiment
  Flux: 1.0 ± 0.7 nmol/cm^2/h
[1]; Table 8, in gel formulation
  36 h cumulative amt: 52.0 ± 42.7 nmol
  36 h skin conc.: 28.4 ± 8.8 µmol/g
[1]; Table 8, in gel formulation, 36 h experiment
  Flux: 2.0 ± 2.3 nmol/cm^2/h
[1]; Table 9, in gel formulation
  24 h cumulative amt: 1.9 ± 1.3 nmol
  Flux: 0.10 ± 0.06 nmol/cm^2/h
[1]; Table 9, in gel formulation, as applied compound (CBD, or PD = intact prodrug)
  24 h skin conc: 24.6 ± 3.6 µmol/g
[1]; Table 10, in propylene glycol
  24 h cumulative amt: 164.5 ± 34.1 nmol
  Flux: 8.0 ± 0.9 nmol/cm^2/h
[1]; Table 10, in propylene glycol, as applied compound (CBD, or PD = intact prodrug)
  24 h skin conc: 85.8 ± 24.3 µmol/g
[1]; [4]
  24 h cumulative amt: 13.3 ± 2.6 nmol
  24 h skin conc: 29.0 ± 10.2 µmol/g
  Flux: 1.0 ± 0.1 nmol/cm^2/h
[1]; [7]
  24 h cumulative amt: 2.9 ± 0.1 nmol
  24 h skin conc: 88.4 ± 36.3 µmol/g
  Flux: 0.24 ± 0.003 nmol/cm^2/h
[1]; [10]
  Flux: 4.2 ± 0.0 nmol/cm^2/h
[1]; [13]
  36 h cumulative amt: 94.5 ± 0.0 nmol
  36 h skin conc.: 39.4 ± 0.0 µmol/g
[1]; Table 14, in propylene glycol, 36 h, as applied compound (CBD or intact prodrug)
  Flux: 8.4 ± 2.4 nmol/cm^2/h
[1]; [21]
  36 h cumulative amt: 93.6 ± 38.0 nmol
  36 h skin conc.: 92.9 ± 4.8 µmol/g
